Here are results for eleven molecules from patent US20120214824A1, “PROTEOSTASIS REGULATORS” (priority 2010, published 2012).

Each structure is given as a SMILES string.

Test in all cases: Multigene assay (QuantiGene Plex 2.0), mouse MEF cell line
What all share (assay type): cell-based
Holding throughout (conditions): 6 hours post-compound treatment

The subject of one test is BCL2. The procedure: (§1) This assay used the QuantiGene Plex 2.0 Reagent System from Affymetrix. This assay combines the use of bDNA (branch DNA) and xMAP magnetic capture beads from Luminex Technologies to quantitatively and simultaneously detect multiple mRNA transcripts per well. The overall procedure was performed according to the QuantiGene Plex 2.0 Reagent System instruction manual from Affymetrix.
(§2) Cells were seeded at a density of 12,000 cells/well in 96-well plates with an overnight incubation at 37° C., 5% CO2. Cells were treated with serially diluted compounds in a 7-point dose dependent manner. Cell lysis with 50% [v/v] Panomics Lysis Mixture (Lysis Mixture+10 μl/ml 25 Proteinase K) was performed 6 hours post-compound treatment. Lysed cells were heated at 50° C. to ensure appropriate lysing and the plates were then frozen at −80° C. Cell lysates, thawed at room temperature on the day of the assay, were pooled with mouse 8-gene multiplex probe sets and with 8 different sets of magnetic capture beads (Luminex Technology, Austin, Tex.) in a 100 μl/well volume. Biomek FX was used at every liquid transfer step. The eight plates containing lysate-probe-bead mixtures were incubated at 54° C.±1° C. on a shaking platform for an overnight incubation in the dark (18-20 hours). The following day the hybridization plates were compressed by transferring the hybridized lysates into a single magnetic capture plate. The plate was kept on a magnet to hold the beads and then washed with Panomics Wash Buffer 2.0 on a BioTek ELx405 select plate washer to remove any unbound sample. This step was followed by serial hybridizations and washings of the bDNA pre-amplifier (1 hour, 50° C.), bDNA amplifier (1 hour, 50° C.), label probe (1 hour, 50° C.), and streptavidin-phycoerythrin (SAPE, 30 minutes, room temperature). (Zhang, A. et al. Small interfering RNA and gene expression analysis using a multiplex branched DNA assay without RNA purification. J Biomol Screen 10, 549-56 (2005)). The plate was then washed with SAPE wash buffer to remove unbound SAPE and each well was analyzed with the Luminex FlexMap3D (Luminex, Austin, Tex.). SAPE fluorescence measured from each bead was proportional to the number of mRNA transcripts captured by the beads (Zheng, Z., Luo, Y. & McMaster, G. K. Sensitive and quantitative measurement of gene expression directly from a small amount of whole blood. Clin Chem 52, 1294-302 (2006)). Fold changes in gene expression were obtained for each gene per well by normalizing the raw data first to the DMSO control and then to a housekeeping gene (TBP-TATA binding protein or Tub1-alpha-tubulin).

For the next test, the system named is DDIT3. The procedure: as §1, §2
The test system of the next test is GCLM. The procedure:
as §1, §2

In a further test the test system is HMOX. On the procedure:
as §1, §2

Another test deals with HSPA1a. On the procedure: as §1, §2
In the next test the test system is HspA5. On the procedure: as §1, §2
The subject of another test is TUB1. The procedure: as §1, §2

Take `CCCc1n[nH]c2c1C(C1CC=CCC1)C(C#N)=C(N)O2` (centres unmarked): in the test on BCL2 (Table 5), the BCL2 gene induction entry is listed as “— (— Indicates less than 2 fold induction)”. Also, the DDIT3 gene induction entry in the test with DDIT3 (Table 5) is recorded as “— (— Indicates less than 2 fold induction)”. Further, in the test with GCLM (Table 5), the GCLM gene induction entry is “+ (+ indicates a induction of greater than 2 fold)”. The HMOX gene induction result in the test on HMOX (Table 5) is on record as “+ (+ indicates a induction of greater than 2 fold)”. Further, in the test on HSPA1a (Table 5), the HSPA1a gene induction entry is “— (— Indicates less than 2 fold induction)”. In addition, the HspA5 gene induction entry in the test with HspA5 (Table 5) is “— (— Indicates less than 2 fold induction)”. Further, in the test with TUB1 (Table 5), the TUB1 gene induction entry is given as “— (— Indicates less than 2 fold induction)”.

Regarding `COC(=O)C1=C(C)Nc2c(c(=O)n(C)c(=O)n2C)C1c1ccc(F)cc1` (centres unmarked) [A], the BCL2 gene induction result in the test with BCL2 (Table 6) was “+ (+ indicates a induction of greater than 2 fold)”. Besides, the DDIT3 gene induction entry with DDIT3 (Table 6) is “+ (+ indicates a induction of greater than 2 fold)”. In addition, the GCLM gene induction entry with GCLM (Table 6) was “— (— Indicates less than 2 fold induction)”. The HMOX gene induction result with HMOX (Table 6) was “— (— Indicates less than 2 fold induction)”. In the test with HSPA1a (Table 6), the HSPA1a gene induction result was “— (— Indicates less than 2 fold induction)”. Moreover, the HspA5 gene induction result in the test with HspA5 (Table 6) is recorded as “— (— Indicates less than 2 fold induction)”. In the test with TUB1 (Table 6), the TUB1 gene induction result is “— (— Indicates less than 2 fold induction)”.

In the case of `CCn1c2c(c(=O)[nH]c1=O)C(c1cccc3ccccc13)C1=C(N2)c2ccccc2C1=O` (centres unmarked) [B], the BCL2 gene induction entry with BCL2 (Table 6) was “— (— Indicates less than 2 fold induction)”. For the same molecule, the DDIT3 gene induction result in the test on DDIT3 (Table 6) is on record as “+ (+ indicates a induction of greater than 2 fold)”. In addition, the GCLM gene induction entry in the test with GCLM (Table 6) is on record as “— (— Indicates less than 2 fold induction)”. The HMOX gene induction result with HMOX (Table 6) is “+ (+ indicates a induction of greater than 2 fold)”. In addition, in the test with HSPA1a (Table 6), the HSPA1a gene induction result is listed as “+ (+ indicates a induction of greater than 2 fold)”. Further, the HspA5 gene induction entry with HspA5 (Table 6) is given as “— (— Indicates less than 2 fold induction)”. The TUB1 gene induction result in the test with TUB1 (Table 6) is given as “— (— Indicates less than 2 fold induction)”.

Turning to `COCC1=C(C(=O)OCC(C)C)C(c2ccc(F)cc2)C2=C(CC(c3cccs3)CC2=O)N1` (centres unmarked) [drawing 26/CH2OMe/COOCH2CHMe2/p-F], the BCL2 gene induction entry in the test on BCL2 (Table 1b) was “− (− Indicates less than 2 fold induction)”. For the same molecule, the DDIT3 gene induction result in the test with DDIT3 (Table 1a) is “+ (+ indicates a induction of greater than 2 fold)”. Further, the GCLM gene induction result with GCLM (Table 1a) is recorded as “− (− Indicates less than 2 fold induction)”. Also, the HMOX gene induction result in the test on HMOX (Table 1b) is “+ (+ indicates a induction of greater than 2 fold)”. Also, in the test with HSPA1a (Table 1b), the HSPA1a gene induction entry was “− (− Indicates less than 2 fold induction)”. The HspA5 gene induction entry in the test on HspA5 (Table 1b) was “− (− Indicates less than 2 fold induction)”. Moreover, the TUB1 gene induction result in the test with TUB1 (Table 1a) was “− (− Indicates less than 2 fold induction)”.

As to `COc1ccccc1C1C(C#N)=C(C)NC2=C1C(=O)CC(c1ccccc1)C2` (centres unmarked) [drawing 27/Me/CN/o-OMe/H], the BCL2 gene induction result with BCL2 (Table 2b) was “− (− Indicates less than 2 fold induction)”. In the test on DDIT3 (Table 2a), the DDIT3 gene induction result is listed as “− (− Indicates less than 2 fold induction)”. Also, the GCLM gene induction entry in the test on GCLM (Table 2a) was “− (− Indicates less than 2 fold induction)”. Further, the HMOX gene induction entry with HMOX (Table 2b) is listed as “− (− Indicates less than 2 fold induction)”. Further, the HSPA1a gene induction result in the test with HSPA1a (Table 2b) is listed as “+ (+ indicates a induction of greater than 2 fold)”. Besides, the HspA5 gene induction result in the test on HspA5 (Table 2b) was “− (− Indicates less than 2 fold induction)”. Moreover, the TUB1 gene induction result in the test with TUB1 (Table 2a) is “− (− Indicates less than 2 fold induction)”.

On to `COc1ccc(C2CC(=O)C3=C(C2)NC(C)=C(C(=O)OCC(C)C)C3c2cccc(F)c2)cc1` (centres unmarked) [drawing 27/Me/COOCH2CHMe2/m-F/OMe], for which the BCL2 gene induction entry in the test on BCL2 (Table 2b) was “+ (+ indicates a induction of greater than 2 fold)”. For the same molecule, the DDIT3 gene induction result in the test on DDIT3 (Table 2a) was “− (− Indicates less than 2 fold induction)”. In addition, in the test with GCLM (Table 2a), the GCLM gene induction entry is “+ (+ indicates a induction of greater than 2 fold)”. Also, in the test with HMOX (Table 2b), the HMOX gene induction entry is “+ (+ indicates a induction of greater than 2 fold)”. For the same molecule, in the test with HSPA1a (Table 2b), the HSPA1a gene induction entry was “+ (+ indicates a induction of greater than 2 fold)”. The HspA5 gene induction entry with HspA5 (Table 2b) is “− (− Indicates less than 2 fold induction)”. In addition, the TUB1 gene induction result with TUB1 (Table 2a) was “− (− Indicates less than 2 fold induction)”.

On to `CC1=C(C(=O)OCC(C)C)C(c2ccccc2OC(C)C)C2=C(CC(c3ccccc3)CC2=O)N1` (centres unmarked) [drawing 27/Me/COOCH2CHMe2/o-OCHMe2/H], for which, in the test with BCL2 (Table 2b), the BCL2 gene induction entry is “− (− Indicates less than 2 fold induction)”. Also, the DDIT3 gene induction result in the test with DDIT3 (Table 2a) was “+ (+ indicates a induction of greater than 2 fold)”. The GCLM gene induction result in the test with GCLM (Table 2a) is recorded as “− (− Indicates less than 2 fold induction)”. The HMOX gene induction entry in the test with HMOX (Table 2b) is reported as “− (− Indicates less than 2 fold induction)”. The HSPA1a gene induction result in the test with HSPA1a (Table 2b) is on record as “− (− Indicates less than 2 fold induction)”. Also, the HspA5 gene induction entry in the test with HspA5 (Table 2b) is “− (− Indicates less than 2 fold induction)”. For the same molecule, the TUB1 gene induction entry in the test with TUB1 (Table 2a) is on record as “− (− Indicates less than 2 fold induction)”.

Regarding `N#CC1=C(N)Oc2[nH]nc(C34CC5CC(CC(C5)C3)C4)c2C1c1cccs1` (centres unmarked) [drawing 29/1-Adamantyl/H/H/S], the BCL2 gene induction result with BCL2 (Table 4b) is on record as “− (− Indicates less than 2 fold induction)”. The DDIT3 gene induction result in the test on DDIT3 (Table 4a) is “− (− Indicates less than 2 fold induction)”. Besides, the GCLM gene induction result with GCLM (Table 4a) is “+ (+ indicates a induction of greater than 2 fold)”. Moreover, in the test on HMOX (Table 4b), the HMOX gene induction entry is “+ (+ indicates a induction of greater than 2 fold)”. For the same molecule, the HSPA1a gene induction result with HSPA1a (Table 4b) is “− (− Indicates less than 2 fold induction)”. The HspA5 gene induction result in the test with HspA5 (Table 4b) is listed as “− (− Indicates less than 2 fold induction)”. Also, the TUB1 gene induction result in the test on TUB1 (Table 4a) is given as “− (− Indicates less than 2 fold induction)”.

In the case of `N#CC1=C(N)Oc2[nH]nc(-c3ccccn3)c2C1c1cccs1` (centres unmarked) [drawing 29/2-Pyridyl/H/H/S], the BCL2 gene induction entry with BCL2 (Table 4b) was “− (− Indicates less than 2 fold induction)”. Further, the DDIT3 gene induction entry in the test on DDIT3 (Table 4a) is “− (− Indicates less than 2 fold induction)”. Further, in the test with GCLM (Table 4a), the GCLM gene induction entry is “+ (+ indicates a induction of greater than 2 fold)”. Besides, the HMOX gene induction result with HMOX (Table 4b) is reported as “+ (+ indicates a induction of greater than 2 fold)”. Further, the HSPA1a gene induction entry in the test on HSPA1a (Table 4b) is reported as “− (− Indicates less than 2 fold induction)”. Also, the HspA5 gene induction entry with HspA5 (Table 4b) is listed as “− (− Indicates less than 2 fold induction)”. In addition, the TUB1 gene induction entry with TUB1 (Table 4a) is “− (− Indicates less than 2 fold induction)”.

As to `CCCc1n[nH]c2c1C(c1ccc(C)o1)C(C#N)=C(N)O2` (centres unmarked) [drawing 29/(CH2)2Me/Me/H/O], the BCL2 gene induction result with BCL2 (Table 4b) is recorded as “− (− Indicates less than 2 fold induction)”. The DDIT3 gene induction result with DDIT3 (Table 4a) is given as “− (− Indicates less than 2 fold induction)”. Besides, the GCLM gene induction result with GCLM (Table 4a) is “+ (+ indicates a induction of greater than 2 fold)”. Further, the HMOX gene induction entry in the test with HMOX (Table 4b) was “+ (+ indicates a induction of greater than 2 fold)”. Moreover, the HSPA1a gene induction entry with HSPA1a (Table 4b) is reported as “− (− Indicates less than 2 fold induction)”. The HspA5 gene induction entry with HspA5 (Table 4b) is “− (− Indicates less than 2 fold induction)”. Further, the TUB1 gene induction entry with TUB1 (Table 4a) is listed as “− (− Indicates less than 2 fold induction)”.

Take `COCc1n[nH]c2c1C(c1cccs1)C(C#N)=C(N)O2` (centres unmarked) [drawing 29/CH2OMe/H/H/S]: the BCL2 gene induction result in the test with BCL2 (Table 4b) is given as “− (− Indicates less than 2 fold induction)”. Further, in the test on DDIT3 (Table 4a), the DDIT3 gene induction entry is given as “− (− Indicates less than 2 fold induction)”. Moreover, in the test on GCLM (Table 4a), the GCLM gene induction entry is given as “+ (+ indicates a induction of greater than 2 fold)”. The HMOX gene induction result in the test with HMOX (Table 4b) is “+ (+ indicates a induction of greater than 2 fold)”. Moreover, in the test with HSPA1a (Table 4b), the HSPA1a gene induction entry was “− (− Indicates less than 2 fold induction)”. For the same molecule, the HspA5 gene induction result in the test on HspA5 (Table 4b) is listed as “− (− Indicates less than 2 fold induction)”. Besides, the TUB1 gene induction result in the test with TUB1 (Table 4a) is on record as “− (− Indicates less than 2 fold induction)”.
